The record followed here is US20240384268A1, “Oligonucleotides” (Hudson Institute of Medical Research, priority 2021, published 2024).

This series has as its target T1, human TLR7 (Homo sapiens, UniProt Q9NYK1).
T1 construct: HA; host or cells: 293XL-hTLR7-HA (HEK293)
T1 sequence (Q9NYK1 27-1049): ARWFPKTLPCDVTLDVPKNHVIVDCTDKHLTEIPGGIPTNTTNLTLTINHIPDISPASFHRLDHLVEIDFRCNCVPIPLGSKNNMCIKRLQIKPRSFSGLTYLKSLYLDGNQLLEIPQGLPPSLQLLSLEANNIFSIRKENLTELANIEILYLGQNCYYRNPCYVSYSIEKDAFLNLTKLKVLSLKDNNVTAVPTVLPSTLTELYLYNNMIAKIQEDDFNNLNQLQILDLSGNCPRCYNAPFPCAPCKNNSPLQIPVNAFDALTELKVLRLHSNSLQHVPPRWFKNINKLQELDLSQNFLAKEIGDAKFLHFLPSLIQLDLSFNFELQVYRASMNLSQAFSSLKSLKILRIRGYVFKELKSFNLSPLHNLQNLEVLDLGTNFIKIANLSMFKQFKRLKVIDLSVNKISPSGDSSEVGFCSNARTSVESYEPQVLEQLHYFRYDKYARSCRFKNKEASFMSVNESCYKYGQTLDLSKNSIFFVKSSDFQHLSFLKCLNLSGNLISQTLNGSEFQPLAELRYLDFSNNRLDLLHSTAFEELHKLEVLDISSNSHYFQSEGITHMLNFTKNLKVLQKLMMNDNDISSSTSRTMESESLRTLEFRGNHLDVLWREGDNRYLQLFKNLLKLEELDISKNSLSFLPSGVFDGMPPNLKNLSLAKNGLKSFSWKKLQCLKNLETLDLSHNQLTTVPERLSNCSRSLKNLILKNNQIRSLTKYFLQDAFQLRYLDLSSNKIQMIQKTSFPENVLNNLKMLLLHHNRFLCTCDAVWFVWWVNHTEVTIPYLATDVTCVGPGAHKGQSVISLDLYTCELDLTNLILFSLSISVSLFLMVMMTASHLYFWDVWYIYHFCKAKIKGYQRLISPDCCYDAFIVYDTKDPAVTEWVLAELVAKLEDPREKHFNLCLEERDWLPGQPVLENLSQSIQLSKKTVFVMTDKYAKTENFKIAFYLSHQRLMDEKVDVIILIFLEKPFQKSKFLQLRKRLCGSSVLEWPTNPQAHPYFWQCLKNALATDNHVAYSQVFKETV
The series is described as follows: HEK-TLR7 NF-κB-luciferase reporter, R848 stimulation. The class given is cell-based. The following applies: for TLR7-100 nM: averaged NF-κB-Luciferase relative to R848: HEK-TLR7, 100 nM ASO, percentage of R848 without ASO (Alharbi et al., 2020); for TLR7 100 nM: MOE-modified ASO at 100 nM; for TLR7 100 nM / TLR7 500 nM: averaged NF-κB-Luciferase relative to R848 condition; for TLR7 500 nM: MOE-modified ASO at 500 nM.

In the oligonucleotide strings, read from the 5' end, every base follows the letter of its sugar. An asterisk marks phosphorothioate; unmarked linkages are phosphodiester. Other units and linkages are bracketed, terminal groups are in braces. A string of capitals states the bases alone. d = 2'-deoxy (DNA); m = 2'-O-methyl

For the substance “mU*mG*mG*mC*mG*T*A*G*T*T*T*C*T*C*T*mU*mC*mC*mU*mC (mU*mG*mG*mC*mG*dT*dA*dG*dT*dT*dT*dC*dT*dC*dT*mU*mC*mC*mU*mC; antisense) [[LINC-PINT]937.1]”, the “TLR7-100 nM: averaged NF-κB-Luciferase relative to R848” value is on record as 32.81%.

As to “mC*mA*mC*mC*mC*T*T*C*T*C*T*C*T*G*G*mU*mC*mC*mC*mA (CACCCTTCTCTCTGGUCCCA; antisense; sugars from the 5' end m5 d10 m5, all phosphorothioate, methylation of C not given here) [[LINC-PINT]116]”, the “TLR7-100 nM: averaged NF-κB-Luciferase relative to R848” value turned out to be 73.30%.

“mA*mA*mA*mU*mG*T*C*C*T*G*G*C*C*C*T*mC*mA*mC*mU*mG (mA*mA*mA*mU*mG*dT*dC*dC*dT*dG*dG*dC*dC*dC*dT*mC*mA*mC*mU*mG) [[LINC-PINT]148.1]”: the “TLR7-100 nM: averaged NF-κB-Luciferase relative to R848” value stood at 46.45%.

With “mG*mU*mC*mU*mC*C*T*C*C*A*C*A*C*C*C*mU*mU*mC*mU*mC (mG*mU*mC*mU*mC*dC*dT*dC*dC*dA*dC*dA*dC*dC*dC*mU*mU*mC*mU*mC; antisense) [[LINC-PINT]126]”, the “TLR7-100 nM: averaged NF-κB-Luciferase relative to R848” value came to 25.01%.

As for “mG*mU*mU*mC*mA*G*T*C*A*G*A*T*C*G*C*mU*mG*mG*mG*mA (mG*mU*mU*mC*mA*dG*dT*dC*dA*dG*dA*dT*dC*dG*dC*mU*mG*mG*mG*mA) [[LINC-PINT]412 KL]”, the “TLR7-100 nM: averaged NF-κB-Luciferase relative to R848” value came to 17.46%.

Consider “mC*mA*mG*mG*mC*C*T*C*C*A*G*T*G*T*C*mU*mU*mC*mU*mC (mC*mA*mG*mG*mC*dC*dT*dC*dC*dA*dG*dT*dG*dT*dC*mU*mU*mC*mU*mC; antisense) [[CDKN2B-AS1]2219]”, for which the “TLR7-100 nM: averaged NF-κB-Luciferase relative to R848” value was determined as 54.11%.

As for “mA*mA*mA*mG*mA*T*T*A*T*C*T*T*C*T*T*mU*mU*mA*mA*mU (mA*mA*mA*mG*mA*dT*dT*dA*dT*dC*dT*dT*dC*dT*dT*mU*mU*mA*mA*mU) [[CDKN2B-AS1]2132]”, the “TLR7-100 nM: averaged NF-κB-Luciferase relative to R848” value came to 49.28%.

As for “mC*mA*mC*mU*mG*T*A*T*T*T*T*A*T*T*A*mC*mA*mG*mA*mA (mC*mA*mC*mU*mG*dT*dA*dT*dT*dT*dT*dA*dT*dT*dA*mC*mA*mG*mA*mA; antisense) [[LINC-PINT]2990]”, the “TLR7-100 nM: averaged NF-κB-Luciferase relative to R848” value was found to be 58.13%.

For the substance “GTCCAAGATCAGCAGTCTCA (antisense; 2'-MOE modified, pattern not given here) [CTNN2B-2341 MOE]”, the “TLR7 100 nM” value was found to be 0.298 and the “TLR7 500 nM” value was determined as 0.120.

Turning to “GGTTTTGGCTGGGATCAAGT (antisense; 2'-MOE modified, pattern not given here) [CAMSAP1-4697 MOE]”, the “TLR7 100 nM” value was found to be 0.346 and the “TLR7 500 nM” value turned out to be 0.191.

Take “mU*mG*mA*mU*mG*A*T*G*C*T*T*G*C*A*G*mG*mA*mG*mG*mC (mU*mG*mA*mU*mG*dA*dT*dG*dC*dT*dT*dG*dC*dA*dG*mG*mA*mG*mG*mC) [[LINC-PINT|283.1]”: the “TLR7-100 nM: averaged NF-κB-Luciferase relative to R848” value came to 25.50%.

As for “mU*mU*mG*mU*mG*A*A*A*A*G*A*T*T*A*T*mC*mU*mU*mC*mU (mU*mU*mG*mU*mG*dA*dA*dA*dA*dG*dA*dT*dT*dA*dT*mC*mU*mU*mC*mU) [[CDKN2B-AS1]2138]”, the “TLR7-100 nM: averaged NF-κB-Luciferase relative to R848” value came to 35.02%.

For “mG*mG*mG*mU*mC*T*C*C*T*C*C*A*C*A*C*mC*mC*mU*mU*mC (GGGUCTCCTCCACACCCUUC; antisense; sugars from the 5' end m5 d10 m5, all phosphorothioate, methylation of C not given here) [[LINC-PINT]128]”, the “TLR7-100 nM: averaged NF-κB-Luciferase relative to R848” value was determined as 21.47%.

In the case of “TTTGCACACTTCGTACCCAA (antisense; 2'-MOE modified, pattern not given here) [CAMSAP1-4916 MOE]”, the “TLR7 100 nM” value is reported as 0.296 and the “TLR7 500 nM” value is 0.118.

For “GGGTATCGAAAGAGTCTGGA (antisense; 2'-MOE modified, pattern not given here) [EGFR-3908 MOE]”, the “TLR7 100 nM” value came out at 0.350 and the “TLR7 500 nM” value is 0.079.

Turning to “mG*mU*mC*mA*mA*A*C*C*T*A*G*A*A*A*G*mA*mA*mG*mC*mA (mG*mU*mC*mA*mA*dA*dC*dC*dT*dA*dG*dA*dA*dA*dG*mA*mA*mG*mC*mA; antisense) [[CDKN2B-AS1]1528]”, the “TLR7-100 nM: averaged NF-κB-Luciferase relative to R848” value stood at 23.64%.

Consider “mG*mG*mU*mC*mU*C*C*T*C*C*A*C*A*C*C*mC*mU*mU*mC*mU (mG*mG*mU*mC*mU*dC*dC*dT*dC*dC*dA*dC*dA*dC*dC*mC*mU*mU*mC*mU; antisense) [[LINC-PINT]127]”, for which the “TLR7-100 nM: averaged NF-κB-Luciferase relative to R848” value was found to be 23.66%.

“mG*mA*mA*mA*mA*G*A*T*T*A*T*C*T*T*C*mU*mU*mU*mU*mA (GAAAAGATTATCTTCUUUUA; sugars from the 5' end m5 d10 m5, all phosphorothioate, methylation of C not given here) [[CDKN2B-AS1]2134]”: the “TLR7-100 nM: averaged NF-κB-Luciferase relative to R848” value is listed as 34.44%.

For the substance “mU*mC*mU*mC*mU*G*G*T*C*C*C*A*T*C*C*mC*mU*mU*mC*mU (UCUCUGGTCCCATCCCUUCU; antisense; sugars from the 5' end m5 d10 m5, all phosphorothioate, methylation of C not given here) [[LINC-PINT]108]”, the “TLR7-100 nM: averaged NF-κB-Luciferase relative to R848” value was determined as 78.25%.

For the substance “mC*mU*mU*mC*mU*C*T*C*T*G*G*T*C*C*C*mA*mU*mC*mC*mC (mC*mU*mU*mC*mU*dC*dT*dC*dT*dG*dG*dT*dC*dC*dC*mA*mU*mC*mC*mC) [[LINC-PINT]112]”, the “TLR7-100 nM: averaged NF-κB-Luciferase relative to R848” value is on record as 56.20%.

“mA*mC*mC*mC*mU*T*C*T*C*T*C*T*G*G*T*mC*mC*mC*mA*mU (mA*mC*mC*mC*mU*dT*dC*dT*dC*dT*dC*dT*dG*dG*dT*mC*mC*mC*mA*mU; antisense) [[LINC-PINT]115]”: the “TLR7-100 nM: averaged NF-κB-Luciferase relative to R848” value was determined as 43.37%.

With “mU*mC*mU*mC*mC*A*T*G*T*C*C*C*A*G*G*mC*mC*mU*mC*mC (mU*mC*mU*mC*mC*dA*dT*dG*dT*dC*dC*dC*dA*dG*dG*mC*mC*mU*mC*mC; antisense) [[CDKN2B-AS1]2230]”, the “TLR7-100 nM: averaged NF-κB-Luciferase relative to R848” value was 43.45%.

Turning to “mG*mG*mU*mC*mC*C*A*T*C*C*C*T*T*C*T*mG*mC*mU*mG*mC (GGUCCCATCCCTTCTGCUGC; sugars from the 5' end m5 d10 m5, all phosphorothioate, methylation of C not given here) [[LINC-PINT]103]”, the “TLR7-100 nM: averaged NF-κB-Luciferase relative to R848” value amounted to 20.75%.

With “mA*mG*mG*mC*mC*T*C*C*A*G*T*G*T*C*T*mU*mC*mU*mC*mC (mA*mG*mG*mC*mC*dT*dC*dC*dA*dG*dT*dG*dT*dC*dT*mU*mC*mU*mC*mC; antisense) [[CDKN2B-AS1]2218]”, the “TLR7-100 nM: averaged NF-κB-Luciferase relative to R848” value stood at 44.73%.

For “mC*mC*mU*mU*mC*T*G*C*T*G*C*C*A*A*G*mC*mC*mC*mC*mA (mC*mC*mU*mU*mC*dT*dG*dC*dT*dG*dC*dC*dA*dA*dG*mC*mC*mC*mC*mA; antisense) [[LINC-PINT]94]”, the “TLR7-100 nM: averaged NF-κB-Luciferase relative to R848” value is 85.57%.

Turning to “mC*mC*mC*mU*mU*C*T*C*T*C*T*G*G*T*C*mC*mC*mA*mU*mC (mC*mC*mC*mU*mU*dC*dT*dC*dT*dC*dT*dG*dG*dT*dC*mC*mC*mA*mU*mC; antisense) [[LINC-PINT]114]”, the “TLR7-100 nM: averaged NF-κB-Luciferase relative to R848” value is on record as 49.59%.

For the substance “mC*mU*mU*mU*mA*T*A*T*T*A*C*A*A*A*G*mC*mU*mA*mC*mU (mC*mU*mU*mU*mA*dT*dA*dT*dT*dA*dC*dA*dA*dA*dG*mC*mU*mA*mC*mU; antisense) [[LINC-PINT]2755]”, the “TLR7-100 nM: averaged NF-κB-Luciferase relative to R848” value was found to be 54.83%.

“TGGCAGGCTCAGTGATGTCT (antisense; 2'-MOE modified, pattern not given here) [CTNN2B-1642 MOE]”: the “TLR7 100 nM” value is 0.415 and the “TLR7 500 nM” value is given as 0.167.

“mC*mA*mA*mG*mC*C*C*C*A*G*C*G*T*T*C*mC*mU*mC*mC*mG (mC*mA*mA*mG*mC*dC*dC*dC*dA*dG*dC*dG*dT*dT*dC*mC*mU*mC*mC*mG; antisense) [[LINC-PINT]83.1]”: the “TLR7-100 nM: averaged NF-κB-Luciferase relative to R848” value is on record as 45.20%.

On to “mG*mU*mC*mC*mC*A*T*C*C*C*T*T*C*T*G*mC*mU*mG*mC*mC (GUCCCATCCCTTCTGCUGCC; antisense; sugars from the 5' end m5 d10 m5, all phosphorothioate, methylation of C not given here) [[LINC-PINT]102]”, for which the “TLR7-100 nM: averaged NF-κB-Luciferase relative to R848” value is 22.47%.
